The record followed here is PubChem BioAssay AID248 (DTP/NCI, 2004).

This experiment concerns L1210 leukemia ip in BDF1 mice, survival T/C. Kind of experiment: NCI In Vivo Anticancer Drug Screen. Data for tumor model L1210 Leukemia (intraperitoneal) in B6D2F1 (BDF1) mice. The conditions noted are these: endpoint: mean survival time, higher = longer survival. The method, boiled down:
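Tumor was transplanted into mice, which were then dosed with test compound or vehicle alone. Survival was recorded for each group, and the treated figure was expressed relative to the control figure.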

[1] abbreviates: dose: 100.0 mg/kg/injection, schedule: Q01DX001 (ip), vehicle: saline.
Setting [2] is: dose: 200.0 mg/kg/injection, schedule: Q01DX001 (ip), vehicle: saline.
Setting [3] is: dose: 400.0 mg/kg/injection, schedule: Q01DX001 (ip), vehicle: saline.
Where [4] appears, read: dose: 100.0 mg/kg/injection, schedule: Q04DX003 (ip), vehicle: saline with Tween-80.
Where [5] appears, read: dose: 200.0 mg/kg/injection, schedule: Q04DX003 (ip), vehicle: saline with Tween-80.
Setting [6] is: dose: 400.0 mg/kg/injection, schedule: Q04DX003 (ip), vehicle: saline with Tween-80.
Setting [7] is: dose: 100.0 mg/kg/injection, schedule: Q04DX002 (ip), vehicle: Klucel (hydroxypropylcellulose) (HPC).
Setting [8] is: dose: 200.0 mg/kg/injection, schedule: Q04DX002 (ip), vehicle: Klucel (hydroxypropylcellulose) (HPC).
[9] abbreviates: dose: 400.0 mg/kg/injection, schedule: Q04DX002 (ip), vehicle: Klucel (hydroxypropylcellulose) (HPC).
[10] abbreviates: dose: 100.0 mg/kg/injection, schedule: Q01DX009 (ip), vehicle: saline.
[11] abbreviates: dose: 200.0 mg/kg/injection, schedule: Q01DX009 (ip), vehicle: saline.

“And” between values parts separate entries of the source, which are not always exact repeats. Equal entries are not always repeated. Inconclusive results and toxic doses are left out.

In the case of `CC(Cc1ccccc1)NC(=O)CCNNC(=O)c1ccncc1` (stereo unspecified), the T/C is, setting by setting: (dose: 12.5 mg/kg/injection, schedule: Q01DX009 (ip), vehicle: Klucel (hydroxypropylcellulose) (HPC)) 96 % of control; (dose: 25.0 mg/kg/injection, schedule: Q01DX009 (ip), vehicle: Klucel (hydroxypropylcellulose) (HPC)) 100 % of control; (dose: 50.0 mg/kg/injection, schedule: Q01DX009 (ip), vehicle: Klucel (hydroxypropylcellulose) (HPC)) 103 % of control; (dose: 50.0 mg/kg/injection, schedule: Q04DX003 (ip), vehicle: Klucel (hydroxypropylcellulose) (HPC)) 98 % of control; (dose: 100.0 mg/kg/injection, schedule: Q01DX009 (ip), vehicle: Klucel (hydroxypropylcellulose) (HPC)) 100 % of control; (dose: 100.0 mg/kg/injection, schedule: Q04DX003 (ip), vehicle: Klucel (hydroxypropylcellulose) (HPC)) 96 % of control. Also, the T/C by setting is: (dose: 200.0 mg/kg/injection, schedule: Q01DX009 (ip), vehicle: Klucel (hydroxypropylcellulose) (HPC)) 91 % of control; (dose: 200.0 mg/kg/injection, schedule: Q04DX003 (ip), vehicle: Klucel (hydroxypropylcellulose) (HPC)) 88 % of control.

With `O=C(Nc1ccc(N=Nc2ccccc2)cc1)C(F)(F)F`, the T/C by setting is: under setting [1], 102 % of control; under setting [2], 109 % of control; under setting [3], 93 % of control.

For `O=C(O)C1(c2ccccc2)SCCS1`, the T/C under setting [4] is 89 % of control, the T/C under setting [5] is 96 % of control and the T/C under setting [6] was 94 % of control.

With `N#Cc1cn(C2OC(CO)C(O)C2O)c2ncnc(Cl)c12` (stereo unspecified), the T/C under setting [1] was 103 % of control, the T/C under setting [2] is 104 % of control and the T/C under setting [3] is 103 % of control.

Turning to `C/C=C\C=C\C(=O)O`, the T/C under setting [7] is 97 % of control, the T/C under setting [8] is 94 % of control and the T/C under setting [9] is 103 % of control.

Take `[CH3][Pb]([CH3])([CH3])[O]C(=O)CCl`: the T/C is, setting by setting: (dose: 0.39 mg/kg/injection, schedule: Q01DX009 (ip), vehicle: saline with Tween-80) 97 % of control; (dose: 0.78 mg/kg/injection, schedule: Q01DX009 (ip), vehicle: saline with Tween-80) 97 % of control; (dose: 1.56 mg/kg/injection, schedule: Q01DX009 (ip), vehicle: saline with Tween-80) 95 % of control and 115 % of control.

`CCCCCCCCCCCCCCCCCCN(c1ccc(C(=O)OCC)cc1)S(=O)(=O)c1ccc(C)cc1`: the T/C (dose: 50.0 mg/kg/injection, schedule: Q01DX009 (ip), vehicle: saline) was 93 % of control; the T/C under setting [10] was 93 % of control; the T/C (dose: 100.0 mg/kg/injection, schedule: Q04DX003 (ip), vehicle: saline) is 97 % of control; the T/C under setting [11] was 90 % of control; the T/C (dose: 200.0 mg/kg/injection, schedule: Q04DX003 (ip), vehicle: saline) was 94 % of control; the T/C (dose: 400.0 mg/kg/injection, schedule: Q04DX003 (ip), vehicle: saline) is 94 % of control.

For the compound `COC(=O)c1cn(C2OC(CO)C(O)C2O)c2ncnc(N)c12` (stereo unspecified), the T/C reads like this: (dose: 20.0 mg/kg/injection, schedule: Q01DX001 (ip), vehicle: water) 108 % of control; (dose: 40.0 mg/kg/injection, schedule: Q01DX001 (ip), vehicle: water) 89 % of control.

In the case of `Cc1ccccc1OCC(=O)Nc1ccc(-c2ccc(NC(=O)COc3ccccc3C)cc2)cc1`, the T/C reads like this: (dose: 100.0 mg/kg/injection, schedule: Q04DX002 (ip), vehicle: gum acacia) 92 % of control; (dose: 200.0 mg/kg/injection, schedule: Q04DX002 (ip), vehicle: gum acacia) 95 % of control; (dose: 400.0 mg/kg/injection, schedule: Q04DX002 (ip), vehicle: gum acacia) 100 % of control.

As for `CCN(CC(=O)O)CC(=O)O`, the T/C is, setting by setting: under setting [1], 93 % of control; under setting [2], 112 % of control; under setting [3], 96 % of control.

Regarding `CCOC1OCN(C(C)(C)C)CC1(C)C` (stereo unspecified), the T/C runs as follows: under setting [10], 118 % of control; under setting [11], 116 % of control.

`COc1cc(CCO)cc(OC)c1`: the T/C (dose: 100.0 mg/kg/injection, schedule: Q01DX001 (ip), vehicle: carboxymethylcellulose (CMC)) is 86 % of control and the T/C (dose: 200.0 mg/kg/injection, schedule: Q01DX001 (ip), vehicle: carboxymethylcellulose (CMC)) was 86 % of control.

In the case of `COP1(=O)OCC2OC(n3cnc4c(N)ncnc43)C(O)C2O1` (stereo unspecified), the T/C by setting is: (dose: 100.0 mg/kg/injection, schedule: Q01DX005 (ip), vehicle: saline) 95 % of control and 103 % of control; under setting [10], 89 % of control; (dose: 200.0 mg/kg/injection, schedule: Q01DX005 (ip), vehicle: saline) 89 % of control and 92 % of control; under setting [11], 92 % of control; (dose: 400.0 mg/kg/injection, schedule: Q01DX005 (ip), vehicle: saline) 92 % of control; (dose: 400.0 mg/kg/injection, schedule: Q01DX009 (ip), vehicle: saline) 98 % of control. Also, where the note is “dose: 600.0 mg/kg/injection, schedule: Q01DX005 (ip), vehicle: saline”, the T/C is 101 % of control.

Take `CC(=O)Nc1cccc(C)c1C`: the T/C under setting [7] is 107 % of control, the T/C under setting [8] is 100 % of control and the T/C under setting [9] was 103 % of control.

With `CCCCCCCCCCCC(c1ccccc1)[N+](C)(C)Cc1ccccc1` (stereo unspecified), the T/C reads like this: (dose: 0.25 mg/kg/injection, schedule: Q01DX015 (ip), vehicle: saline) 108 % of control; (dose: 0.5 mg/kg/injection, schedule: Q01DX015 (ip), vehicle: saline) 103 % of control; (dose: 1.0 mg/kg/injection, schedule: Q01DX015 (ip), vehicle: saline) 115 % of control; (dose: 2.0 mg/kg/injection, schedule: Q01DX015 (ip), vehicle: saline) 114 % of control; (dose: 2.5 mg/kg/injection, schedule: Q01DX001 (ip), vehicle: carboxymethylcellulose (CMC)) 93 % of control.

`CCC1(O)CC2CN(CCc3c([nH]c4ccccc34)C(C(=O)OC)(c3cc4c(cc3OC)N(C)C3C(O)(C(=O)NCCO)C(O)C5(CC)C=CCN6CCC43C65)C2)C1` (stereo unspecified): the T/C reads like this: (dose: 0.16 mg/kg/injection, schedule: Q01DX009 (ip), vehicle: saline) 123 % of control; (dose: 0.39 mg/kg/injection, schedule: Q04DX003 (ip), vehicle: saline) 158 % of control; (dose: 1.2 mg/kg/injection, schedule: Q01DX009 (ip), vehicle: saline) 116 % of control; (dose: 389.0 micrograms/kg/injection, schedule: Q04DX003 (ip), vehicle: saline) 118 % of control; (dose: 648.0 micrograms/kg/injection, schedule: Q04DX003 (ip), vehicle: saline) 106 % of control; (dose: 1080.0 micrograms/kg/injection, schedule: Q04DX003 (ip), vehicle: saline) 123 % of control. Also, the T/C (dose: 5000.0 micrograms/kg/injection, schedule: Q04DX003 (ip), vehicle: saline) is 115 % of control.

For `CC(C)=C(C=O)CCC(C)C`, the T/C by setting is: (dose: 100.0 mg/kg/injection, schedule: Q01DX009 (ip), vehicle: saline with Tween-80) 93 % of control; under setting [4], 95 % of control; (dose: 200.0 mg/kg/injection, schedule: Q01DX009 (ip), vehicle: saline with Tween-80) 88 % of control; under setting [5], 93 % of control; under setting [6], 97 % of control.

In the case of `CC(/C=C\c1cccc([N+](=O)[O-])c1)=N\NC(=O)c1ccncc1`, the T/C was 93 % of control under setting [4], 101 % of control under setting [5] and 96 % of control under setting [6].
